One compound from patent US10746747B2, “Method for quantitative characterization of substances with regard to their properties of binding to amyloid-β (Aβ) conformers” (FORSCHUNGSZENTRUM JUELICH GMBH, priority 2013, dated 2020) can be followed below.

The target in one test is T1, Aβ(1-42) monomers (Homo sapiens, UniProt P05067).
T1 construct: sensor surfaces containing immobilized Aβ(1-42) monomers, oligomers and fibrils
In words: SPR single-cycle kinetics on immobilized Aβ(1-42) monomers. As to conditions: monomers by density gradient centrifugation, 1423 RU immobilized, heterogeneous binding model, two sites. As for the experimental part: (§1) The results can be obtained by surface plasmon resonance or by biolayer interferometry. In the case of surface plasmon resonance, regeneration steps between individual analyte injections are circumvented by carrying out the interaction studies using the “single-cycle kinetics” measurement method. Thus, advantageously, different analyte concentrations are injected directly one after the other.
(§2) In order to ensure a homogeneous sample preparation, monomers and oligomers were separated by means of size exclusion chromatography (SEC), and fibrils were separated from other forms by means of density gradient centrifugation. The immobilization on streptavidin-loaded SPR sensor surfaces took place by using biotinylated Aβ(1-42), oligomers and fibrils being composed of a 1:10 ratio of biotinylated Aβ(1-42) to non-biotinylated Aβ(1-42).
(§3) The lyophilized samples of N-terminally biotinylated Aβ(1-42) and non-biotinylated Aβ(1-42) were each dissolved separately from one another in 100% hexafluoroisopropanol (HIFP) and incubated overnight at room temperature. The volumes required for a 1:10 ratio were then combined and the HFIP was evaporated off using a concentrator.
(§4) For the preparation of monomeric and oligomeric Aβ(1-42), the previously obtained pellet was taken up in the size exclusion chromatography buffer (50 mM sodium phosphate buffer, 150 mM NaCl, 0.6% Tween 20, pH 7.4) and briefly centrifuged for 30 seconds at 15500 g in order to sediment insoluble material.
(§5) The supernatant after the centrifugation step at the end of the preparation of monomeric and oligomeric Aβ(1-42) was then applied directly to a Superdex 75 10/300 GL (GE Healthcare) column for chromatographic separation. The flow rate during the elution with size exclusion chromatography buffer was 0.8 ml/min. Monomers eluted at ˜14 ml, whereas oligomers eluted at ˜8 ml.
(§6) The density gradient was prepared by subsequently layering over the density gradient solution (iodixanol diluted in 10 mM sodium phosphate buffer pH 7.4) in concentrations of 50% (260 μl), 40% (260 μl), 30% (260 μl), 20% (260 μl), 10% (260 μl) and 5% (100 μl) (v/v). The samples were then pipetted onto the density gradient and centrifugation was carried out for 3 hours at 4° C. and 259000 g. A total of 14 fractions, each of 140 μl, was then removed from the density gradient from top to bottom. Monomers are found in the first fraction, oligomers are found in fractions 5 and 6, and fibrils are found typically in fractions 11-13.
(§7) The monomers are biotinylated C-terminally, unlike the oligomers and fibrils (N-terminally). The response units (Y-axis) were plotted against the time in seconds (X-axis), wherein the black curves represent the double-referenced experimental data and the gray superposed curves represent the fits. […]

Another test addresses T2, Aβ(1-42) oligomers (Homo sapiens, UniProt P05067).
T2 construct: oligomers and fibrils being composed of a 1:10 ratio of biotinylated Aβ(1-42) to non-biotinylated Aβ(1-42)
Kind of test: SPR single-cycle kinetics on immobilized Aβ(1-42) oligomers. As to conditions: oligomers by density gradient centrifugation, 1356 RU immobilized, heterogeneous binding model, two sites. As for the experimental part: as §1, §2, §3, §4, §5, §6, §7

In a further test the target is T3, Aβ(1-42) fibrils (Homo sapiens, UniProt P05067).
T3 construct: oligomers and fibrils being composed of a 1:10 ratio of biotinylated Aβ(1-42) to non-biotinylated Aβ(1-42)
T3 sequence (P05067 672-713 limits assumed): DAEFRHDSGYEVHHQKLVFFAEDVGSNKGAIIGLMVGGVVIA
In words: SPR single-cycle kinetics on immobilized Aβ(1-42) fibrils. As to conditions: fibrils by density gradient centrifugation, 1324 RU immobilized, binding model with three binding sites. As for the experimental part: as §1, §2, §3
For the preparation of fibrillar Aβ(1-42), the pellets obtained after the evaporation were dissolved in 10 mM sodium phosphate buffer pH 7.4 and incubated for 24 hours at 25° C. and at 600 rpm.
as §6
The monomers are biotinylated C-terminally, unlike the oligomers and fibrils (N-terminally). The response units (Y-axis) were plotted against the time in seconds (X-axis), wherein the black curves represent the double-referenced experimental data and the gray superposed curves represent the fits. For characterizing the scFv-IC16, therefore, measurements using biotinylated Aβ(1-42) are possible; C-terminally biotinylated Aβ(1-42) was used here. For fitting to monomers, a 1:1 Langmuir binding model was used and oligomers and fibrils were fitted to a heterogeneous binding model which takes account of two different binding sites on the sensor surface. It can clearly be seen that the fits coincide very well with the experimental data. This is direct evidence of the successful immobilization of the various forms and the respectively homogeneous surface.
The index a1 and d1 refer respectively to the association and dissociation rate of the antibody fragment scFv-IC16 on the respective exposed epitope of the conformer. The index a2 and d2, on the other hand, refer respectively to the association and dissociation rate of the antibody fragment scFv-IC16 on discontinuous epitopes of the respective conformer. Analogously, the indices D1 and D2 refer to the dissociation constants on the continuous and discontinuous epitope.
The D-enantiomeric peptide D7 was identified by a mirror image […] selection and analyzed using the method described above with regard to the binding properties, by way of example as a substance to be tested. In a manner differing from the measurement data in FIG. 3, in this case, all the different Aβ(1-42) conformers (monomers, oligomers and fibrils) were prepared by means of density gradient centrifugation and immobilized in various quantities on the sensor surface. In the case of the monomers, 1423 RU were immobilized, in the case of the oligomers 1356 RU, and in the case of the fibrils 1324 RU. […]

The mark [1] stands for this setting: sub-reaction 1, read-out: ka1 association rate.
[2] abbreviates: sub-reaction 1, read-out: kd1 dissociation rate.
[3] abbreviates: sub-reaction 2, read-out: ka2 association rate.
[4] abbreviates: sub-reaction 2, read-out: kd2 dissociation rate.

Each structure is given as a SMILES string. Like-named read-outs stand apart in the source and are kept apart here. Square brackets hold non-standard residues; d marks the D form. Peptide text beside a SMILES is read from it.

T1 sequence (P05067 672-713 limits assumed): as above
T2 sequence (P05067 672-713 limits assumed): as above

Turning to `CSCC[C@@H](NC(=O)[C@@H](Cc1c[nH]cn1)NC(=O)[C@@H](Cc1ccc(O)cc1)NC(=O)[C@H](NC(=O)[C@@H](Cc1ccc(O)cc1)NC(=O)[C@@H](Cc1ccc(O)cc1)NC(=O)[C@@H](CCC(=O)O)NC(=O)[C@@H](Cc1ccccc1)NC(=O)[C@@H](CCCNC(=N)N)NC(=O)[C@H](NC(=O)[C@H](N)Cc1c[nH]cn1)[C@H](C)O)C(C)C)C(=O)N[C@H](CO)C(=O)O` [D7, htrfeyyvyhms] (H-[dH][dT][dR][dF][dE][dY][dY][dV][dY][dH][dM][dS]-OH; N-terminus and C-terminus assumed), the kon on Aβ(1-42) monomers (setting [1]) came to 2420 M⁻¹ s⁻¹; on Aβ(1-42) monomers (setting [3]), 100000 M⁻¹ s⁻¹; at Aβ(1-42) oligomers (setting [1]) it was 4520 M⁻¹ s⁻¹; on Aβ(1-42) oligomers (setting [3]), 66200 M⁻¹ s⁻¹; on Aβ(1-42) fibrils (setting [1]), 18200 M⁻¹ s⁻¹; on Aβ(1-42) fibrils (setting [3]) it was 1320 M⁻¹ s⁻¹. Also, on Aβ(1-42) fibrils (sub-reaction 3, read-out: ka3 association rate), the kon came out at 32300 M⁻¹ s⁻¹. Besides, the koff turned out to be 0.000364 s⁻¹ at Aβ(1-42) monomers (setting [2]); 0.00928 s⁻¹ at Aβ(1-42) monomers (setting [4]); 0.000402 s⁻¹ at Aβ(1-42) oligomers (setting [2]); 0.0153 s⁻¹ on Aβ(1-42) oligomers (setting [4]); 0.262 s⁻¹ at Aβ(1-42) fibrils (setting [2]); 0.000193 s⁻¹ on Aβ(1-42) fibrils (setting [4]). Also, on Aβ(1-42) fibrils (sub-reaction 3, read-out: kd3 dissociation rate), the koff was 0.0125 s⁻¹.
